Values of other authors in patent US20220354770A1, “METHOD FOR DYEING KERATINOUS MATERIAL BY MEANS OF A PREMIX OF AMINOSILICONE AND A CHROMOPHORIC COMPOUND” (Henkel AG & Co. KGaA, priority 2019, published 2022).

Conditions: 25° C.

O=S(=O)([O-])c1ccc(N=Nc2c(O)ccc3ccccc23)cc1.[Na+] [Acid Orange 7, sodium salt of 4-[(2-hydroxy-1-naphthyl)azo]benzene sulphonate]
solubility in water: more than 7 g/L

Nc1cc(S(=O)(=O)[O-])cc2cc(S(=O)(=O)[O-])c(N=Nc3ccccc3)c(O)c12.[Na+].[Na+] [Acid Red 33, diantrium salt of 5-amino-4-hydroxy-3-(phenylazo)-naphthalene-2,7-disulphonate]
solubility in water: 2.5 mg/mL

O=C([O-])c1c(Cl)c(Cl)c(Cl)c(Cl)c1-c1c2c(Br)cc(=O)c(Br)c-2oc2c(Br)c(O)cc(Br)c12.O=C([O-])c1c(Cl)c(Cl)c(Cl)c(Cl)c1-c1c2c(Br)cc(=O)c(Br)c-2oc2c(Br)c(O)cc(Br)c12.[Na+].[Na+] [Acid Red 92, disodium salt of 3,4,5,6-tetrachloro-2-(1,4,5,8-tetrabromo-6-hydroxy-3-oxoxanthen-9-yl)benzoic acid]
solubility in water: greater than 10 g/L

O=C([O-])C1=NN(c2ccc(S(=O)(=O)[O-])cc2)C(=O)C1N=Nc1ccc(S(=O)(=O)[O-])cc1.[Na+].[Na+].[Na+] (stereo not shown) [Acid Yellow 23, trisodium salt of 4,5-dihydro-5-oxo-1-(4-sulfophenyl)-4-((4-sulfophenyl)azo)-1H-pyrazole-3-carboxylic acid]
solubility in water: highly soluble
